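How tested: cells in 96-well plates exposed to compound for 48 hours at five concentrations. Definition used: TGI = concentration required for complete inhibition of growth.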
Assays:
Test in all cases: inhibition of tumour cell growth, NCI panel, 48 h
SF-295 CNS = system: SF-295 CNS
NCI-H460 lung = system: NCI-H460 lung
CAKI-1 renal = system: CAKI-1 renal
T-47D breast = system: T-47D breast
COLO 205 colon = system: COLO 205 colon
K-562 leukemia = system: K-562 leukemia
HS 578T breast = system: HS 578T breast
MDA-MB-231 breast = system: MDA-MB-231 breast
NCI-H23 lung = system: NCI-H23 lung
EKVX NSCLC = system: EKVX NSCLC
A549 NSCLC = system: A549 NSCLC
MCF7 breast = system: MCF7 breast
M14 melanoma = system: M14 melanoma
SF-268 CNS = system: SF-268 CNS
MDA-MB-435 = system: MDA-MB-435
HOP-62 NSCLC = system: HOP-62 NSCLC
HCT-116 colon = system: HCT-116 colon
KM12 colon = system: KM12 colon
MOLT-4 leukemia = system: MOLT-4 leukemia
A498 renal = system: A498 renal
OVCAR-3 ovarian = system: OVCAR-3 ovarian
SNB-19 CNS = system: SNB-19 CNS
SK-OV-3 ovarian = system: SK-OV-3 ovarian
BT-549 breast = system: BT-549 breast
RPMI-8226 leukemia = system: RPMI-8226 leukemia
OVCAR-8 ovarian = system: OVCAR-8 ovarian
TK-10 renal = system: TK-10 renal
SN12C renal = system: SN12C renal
OVCAR-4 ovarian = system: OVCAR-4 ovarian
SK-MEL-28 melanoma = system: SK-MEL-28 melanoma
DU-145 prostate = system: DU-145 prostate
UO-31 renal = system: UO-31 renal
UACC-62 melanoma = system: UACC-62 melanoma
SF-539 CNS = system: SF-539 CNS
NCI/ADR-RES ovarian = system: NCI/ADR-RES ovarian
SK-MEL-2 melanoma = system: SK-MEL-2 melanoma
SNB-75 CNS = system: SNB-75 CNS
HCC-2998 colon = system: HCC-2998 colon
PC-3 prostate = system: PC-3 prostate
OVCAR-5 ovarian = system: OVCAR-5 ovarian
ACHN renal = system: ACHN renal
SW-620 colon = system: SW-620 colon
RXF 393 renal = system: RXF 393 renal
SK-MEL-5 melanoma = system: SK-MEL-5 melanoma
786-0 renal = system: 786-0 renal
U251 CNS = system: U251 CNS
UACC-257 melanoma = system: UACC-257 melanoma
MDA-N = system: MDA-N
HCT-15 colon = system: HCT-15 colon
HT29 colon = system: HT29 colon

## Clc1ccc2nc3n[nH]c(Cl)c3nc2c1
SF-295 CNS
  TGI: > 100 µM
NCI-H460 lung
  TGI: > 100 µM
CAKI-1 renal
  TGI: > 100 µM
T-47D breast
  TGI: > 100 µM
COLO 205 colon
  TGI: > 100 µM
K-562 leukemia
  TGI: > 100 µM
HS 578T breast
  TGI: 63.6 µM
MDA-MB-231 breast
  TGI: > 100 µM
NCI-H23 lung
  TGI: > 100 µM
EKVX NSCLC
  TGI: 85.4 µM
A549 NSCLC
  TGI: > 100 µM
MCF7 breast
  TGI: > 100 µM
M14 melanoma
  TGI: > 100 µM
SF-268 CNS
  TGI: > 100 µM
MDA-MB-435
  TGI: > 100 µM
HOP-62 NSCLC
  TGI: > 100 µM
HCT-116 colon
  TGI: > 100 µM
KM12 colon
  TGI: > 100 µM
MOLT-4 leukemia
  TGI: > 100 µM
A498 renal
  TGI: > 100 µM
OVCAR-3 ovarian
  TGI: > 100 µM
SNB-19 CNS
  TGI: > 100 µM
SK-OV-3 ovarian
  TGI: > 100 µM
BT-549 breast
  TGI: > 100 µM
RPMI-8226 leukemia
  TGI: > 100 µM
OVCAR-8 ovarian
  TGI: > 100 µM
TK-10 renal
  TGI: > 100 µM
SN12C renal
  TGI: > 100 µM
OVCAR-4 ovarian
  TGI: > 100 µM
SK-MEL-28 melanoma
  TGI: > 100 µM
DU-145 prostate
  TGI: > 100 µM
UO-31 renal
  TGI: 68.2 µM
UACC-62 melanoma
  TGI: > 100 µM
SF-539 CNS
  TGI: > 100 µM
NCI/ADR-RES ovarian
  TGI: > 100 µM
SK-MEL-2 melanoma
  TGI: > 100 µM
SNB-75 CNS
  TGI: > 100 µM
HCC-2998 colon
  TGI: > 100 µM
PC-3 prostate
  TGI: > 100 µM
OVCAR-5 ovarian
  TGI: > 100 µM
ACHN renal
  TGI: > 100 µM
SW-620 colon
  TGI: > 100 µM
RXF 393 renal
  TGI: > 100 µM
SK-MEL-5 melanoma
  TGI: 97.8 µM
786-0 renal
  TGI: > 100 µM
U251 CNS
  TGI: > 100 µM
UACC-257 melanoma
  TGI: > 100 µM
MDA-N
  TGI: > 100 µM
HCT-15 colon
  TGI: > 100 µM
HT29 colon
  TGI: > 100 µM

— PubChem BioAssay (NCI)
